Assay results published in patent publication US9346753B2, “Dithiol mucolytic agents” (PARION SCIENCES, INC., priority 2013, dated 2016).
Structures can show the parent of a compound that is named as a salt.

Tests used:
[1] = DTNB assay: rate of disulfide bond reduction; format: biochemical; set-up: unit not given here; conditions: 2nd order kinetic
Protocol: DTNB ASSAY: This assay determines the rate which a mucolytic agent can reduce a disulfide bond using 5,5-Dithiobis(2-nitrobenzoic acid). DTNB in various pH buffers and allows comparison of the kinetic rates of reducing agents. First, reducing agent stock solutions (30 mM) were made up in DMSO. Each compound stock solution was diluted, […] in 1 ml 50 mM Tris-HCl buffer, pH 7.5, and then added in a 1:1 volumetric ratio to a solution of 100 mM DTNB in 50 mM Tris-HCl buffer, pH 7.5. Max Abs412 was measured and then utilized to calculate the activity concentration. If the observed activity concentrations differed from expected activity concentrations by more than 5%, the volume was accordingly adjusted to kinetically test the rate in the next step. After having added the reducing agents, diluted in a range of pH buffer solutions (pH 6.0-7.5), to 45 mM DTNB in 50 mM Tris-HCl and measured the Abs412 for 5 min rates were calculated as a 2nd order kinetic.

sheep treated with NE = experiment: TMV studies in sheep (neutrophil elastase model of acute bronchitis); format: in vivo; conditions: 1 μmole/kg by aerosol after neutrophil elastase (NE)
Protocol: Test articles were administered to the pulmonary surfaces as an inhalation aerosol. For human neutrophil Elastase (HNE) studies, tracheal mucus velocity (TMV) was measured at 1 and 2 hours after HNE (but before drug); and 1, 30, 60, 90, and 120 minutes post-aerosol administration of Compound G.
The measurements of TMV were made as follows: Eight to 10 radiopaque Teflon disks (˜1 mm in diameter, 0.8 mm thick, and weighing between 1.5-2 mg) were introduced into the trachea via an endotracheal tube (ETT). The particles were insufflated by a catheter connected to a source of compressed air (flow rate of 3-4 ml/min at 50 psi). The catheter was removed following insufflation without contacting the tracheal surface. To minimize the ETT effects on TMV, the cuff was deflated throughout the study except for the period of drug delivery. The disk movements were recorded using videotaped fluoroscopy, and individual disk velocities were calculated by measuring the distance traveled by each disk over a 60-s period. A collar containing radiopaque markers of predetermined length was placed around the animal's neck, which was used as a standard to correct for magnification effects intrinsic to the fluoroscopy unit. The mean value of disk velocities was calculated for each time point. To avoid dehydration, the sheep were periodically gavaged with tap water via a nastrogastric tube. […]

[2] = Elimination of inhaled NAC from the lungs in animal studies; format: in vivo; conditions: inhaled or intranasal, 14C-labeled NAC, administered by inhalation, animal studies (unpublished observation)
Text: NAC, as a topical pulmonary therapeutic agent, is not optimal for the reduction of mucin disulfide bonds. […] For example, in the pH environment of the airway surface (measured in the range of pH 6.0 to 7.2 in CF and COPD airways), NAC exists only partially in its reactive state as a negatively charge thiolate (Jayaraman S, Song Y, Vetrivel L, Shankar L, Verkman A S. Noninvasive in vivo fluorescence measurement of airway-surface liquid depth, salt concentration, and pH. J Clin Invest. 2001; 107(3):317-24) (FIG. 3). […] The relatively low reducing activity at of NAC physiologic airway pH and a the short half-life of NAC on the lung surface provide an explanation for the lack of strong clinical evidence for effective mucus reduction in mucus obstructive diseases.

Structure (SMILES) | Kinetic Reaction Rates of Reduction of DTNB ([1]; pH 6) | Duration of TMV restoration post-dosing (sheep treated with NE) [h] | Tracheal mucus velocity (TMV) (sheep treated with NE; compared with vehicle) | Kinetic Reaction Rates of Reduction of DTNB ([1]; pH 6.5) | Kinetic Reaction Rates of Reduction of DTNB ([1]; pH 7) | Kinetic Reaction Rates of Reduction of DTNB ([1]; pH 7.5) | half-life [2] [min]
N=C(N)NCCCC[C@@H](N)C(=O)NCCOc1cc(CS)c(CS)cc1OCCNC(=O)[C@H](N)CCCCNC(=N)N [Compound G, (2R,2′R)-N,N′-(2,2′-(4,5-bis(mercaptomethyl)-1,2-phenylene)bis(oxy)bis(ethane-2,1-diyl))bis(2-amino-6-guanidinohexanamide) Hydrochloride] | 5154 | 2 | restored TMV to normal, pre-NE levels | – | – | – | –
CC(=O)N[C@@H](CS)C(=O)O [NAC, N-acetyl cysteine, reference compound] | 10 | – | – | 26 | 69 | 230 | ~20
